The NIST ThermoML archive (doi:10.1021/acs.jced.5b00778)

Experiment: mn = molality of the nth substance listed, in mol/kg
Conditions: 298.15 K; for surface tension liquid-gas: Ring tensiometer; for electrical conductivity: 100 kPa, Liquid, Alternating current cell with electrodes

CCCCCCCCCCCCCCCCOCC(O)C[N+](C)(C)CCCCCCCC.[Br-] (stereo not given) + O
Conditions | electrical conductivity [S/m] | surface tension liquid-gas [mN/m]
m1 = 2.04e-06 | – | 69.09
m1 = 2.63e-06 | – | 68.55
m1 = 3.55e-06 | – | 61.94
m1 = 3.8e-06 | – | 60.95
m1 = 4.07e-06 | – | 55.95
m1 = 4.37e-06 | – | 48.71
m1 = 5.89e-06 | – | 44.65
m1 = 7.94e-06 | – | 41.6
m1 = 1.023e-05 | – | 37.64
m1 = 0.0067 | 5.6e-05 | –
m1 = 0.0076 | 5.8e-05 | –
m1 = 0.0086 | 6.4e-05 | –
m1 = 0.0095 | 7.4e-05 | –
m1 = 0.0105 | 7.7e-05 | –
m1 = 0.0114 | 7.8e-05 | –
m1 = 0.0124 | 9.3e-05 | –
m1 = 0.0133 | 9.6e-05 | –
m1 = 0.0143 | 0.000114 | –
m1 = 0.0152 | 0.000111 | –
m1 = 0.0162 | 0.000121 | –
m1 = 0.0171 | 0.000132 | –
m1 = 0.0181 | 0.000144 | –
m1 = 0.019 | 0.000147 | –
m1 = 0.0209 | 0.000168 | –
m1 = 0.0219 | 0.000176 | –
m1 = 0.0229 | 0.00019 | –
m1 = 0.0238 | 0.000201 | –
m1 = 0.0248 | 0.000212 | –

CCCCCCCCCCCCCCOCC(O)C[N+](C)(C)CCCCCCCC.[Br-] (stereo not given) + O
Conditions | electrical conductivity [S/m] | surface tension liquid-gas [mN/m]
m1 = 3.388e-06 | – | 60.85
m1 = 4.169e-06 | – | 59.07
m1 = 5.012e-06 | – | 58.67
m1 = 6.761e-06 | – | 54.53
m1 = 8.511e-06 | – | 51.91
m1 = 1.175e-05 | – | 47.9
m1 = 1.514e-05 | – | 44.86
m1 = 1.995e-05 | – | 41.5
m1 = 2.512e-05 | – | 39.09
m1 = 3.388e-05 | – | 36.16
m1 = 4.571e-05 | – | 33.74
m1 = 0.009 | 0.000161 | –
m1 = 0.0144 | 0.000255 | –
m1 = 0.0198 | 0.000343 | –
m1 = 0.0252 | 0.000427 | –
m1 = 0.0306 | 0.000521 | –
m1 = 0.036 | 0.000636 | –
m1 = 0.0414 | 0.000683 | –

CCCCCCCCCCCCCC[N+](C)(C)CC(O)COCCCCCCCCCC.[Br-] (stereo not given) + O
Conditions | electrical conductivity [S/m] | surface tension liquid-gas [mN/m]
m1 = 2.4e-07 | – | 70.44
m1 = 2.82e-07 | – | 69.87
m1 = 4.17e-07 | – | 69.41
m1 = 5.62e-07 | – | 65.68
m1 = 7.24e-07 | – | 57.18
m1 = 8.51e-07 | – | 53.77
m1 = 1.148e-06 | – | 48.14
m1 = 1.413e-06 | – | 44.06
m1 = 1.698e-06 | – | 40.95
m1 = 2.291e-06 | – | 35.65
m1 = 2.818e-06 | – | 33.63
m1 = 0.0013 | 2.8e-05 | –
m1 = 0.0027 | 4.9e-05 | –
m1 = 0.004 | 4.9e-05 | –
m1 = 0.0053 | 5.8e-05 | –
m1 = 0.0067 | 8e-05 | –
m1 = 0.008 | 0.000102 | –
m1 = 0.0093 | 0.000111 | –
m1 = 0.0107 | 0.000117 | –
m1 = 0.012 | 0.000157 | –
m1 = 0.0133 | 0.00017 | –
m1 = 0.0147 | 0.000166 | –
m1 = 0.016 | 0.000201 | –
m1 = 0.0174 | 0.000211 | –
m1 = 0.0187 | 0.000243 | –
m1 = 0.02 | 0.000261 | –
m1 = 0.0214 | 0.000284 | –
m1 = 0.0227 | 0.000297 | –
m1 = 0.024 | 0.000319 | –
m1 = 0.0254 | 0.00033 | –
m1 = 0.0267 | 0.000361 | –
m1 = 0.028 | 0.000376 | –

CCCCCCCCCCCCOCC(O)C[N+](C)(C)CCCCCCCC.[Br-] (stereo not given) + O
Conditions | electrical conductivity [S/m] | surface tension liquid-gas [mN/m]
m1 = 1.047e-05 | – | 64.92
m1 = 1.738e-05 | – | 60.07
m1 = 2.089e-05 | – | 57.65
m1 = 2.818e-05 | – | 53.97
m1 = 3.548e-05 | – | 52.04
m1 = 4.898e-05 | – | 48.46
m1 = 6.31e-05 | – | 46.1
m1 = 8.511e-05 | – | 42.5
m1 = 0.0001047 | – | 39.79
m1 = 0.0001479 | – | 36.43
m1 = 0.0001905 | – | 33.42
m1 = 0.014 | 0.00023 | –
m1 = 0.028 | 0.00034 | –
m1 = 0.0561 | 0.00065 | –
m1 = 0.0841 | 0.00105 | –
m1 = 0.1121 | 0.00117 | –
m1 = 0.1402 | 0.00141 | –
m1 = 0.1682 | 0.00173 | –
m1 = 0.1962 | 0.00195 | –
m1 = 0.2243 | 0.00226 | –

CCCCCCCCCCOCC(O)C[N+](C)(C)CCCCCCCC.[Br-] (stereo not given) + O
Conditions | electrical conductivity [S/m] | surface tension liquid-gas [mN/m]
m1 = 2.399e-05 | – | 63.84
m1 = 3.388e-05 | – | 60.78
m1 = 3.715e-05 | – | 59.62
m1 = 7.413e-05 | – | 53.71
m1 = 7.59e-05 | 0.00088 | –
m1 = 0.0001122 | – | 49.75
m1 = 0.0001514 | – | 47
m1 = 0.0001518 | 0.00161 | –
m1 = 0.0001905 | – | 45.13
m1 = 0.000235 | 0.0023 | –
m1 = 0.000263 | – | 41.95
m1 = 0.0003035 | 0.00316 | –
m1 = 0.0003715 | – | 39.03
m1 = 0.0004553 | 0.00439 | –
m1 = 0.0005248 | – | 35.86
m1 = 0.000535 | 0.00496 | –
m1 = 0.000607 | 0.00573 | –
m1 = 0.0007413 | – | 33.29
m1 = 0.0007588 | 0.00697 | –
m1 = 0.000835 | 0.00758 | –
m1 = 0.0009105 | 0.00827 | –
m1 = 0.001062 | 0.00937 | –
